Laboratory results: patent publication US20200060276A1, “THIAZOLE COMPOUND AND HERBICIDE” (OAT Agrio Co., Ltd., priority 2017, published 2020)

What was measured:
Assay type in all cases: in vivo
[1] = tested on: Echinochloa crus-galli (L.) P. Beauv. var. formosensis Ohwi; assay: Test for Herbicidal Effect in Flooding Treatment (#1), ECHDG; details: for ECHDG #1 herbicidal effect (growth inhibition grade): flooding treatment at seeding, dose 2 kg/ha, visual observation on day 21; for ECHDG #1 herbicidal effect (growth inhibition rating 0-5): flooding treatment #1
Summary of the method: (§1)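 Sieved soil in cups was flooded and left 24 h before weed seeds were sown. Compounds in acetone, diluted with Tween 80-containing water, were dropped over the whole surface at 2 kg/ha. After 21 days in a glasshouse, growth inhibition was scored visually from 0 (<10%) to 5 (≥90% or complete withering).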

[2] = tested on: Monochoria vaginalis; assay: Test for Herbicidal Effect in Flooding Treatment (#1), MONVA; details: for MONVA #1 herbicidal effect (growth inhibition grade): flooding treatment at seeding, dose 2 kg/ha, visual observation on day 21; for MONVA #1 herbicidal effect (growth inhibition rating 0-5): flooding treatment #1
Experimental: (#1) Test for Herbicidal Effect in Flooding Treatment: Styrol cups each having an opening diameter of 8 cm (about 52 cm^2) were respectively filled with soil (45 ml) which had been passed through a sieve (2 mm). Water (about 115 ml) was mixed with the soil such that the soil was flooded. After the soil stood still for 24 hours, Monochoria vaginalis, Echinochloa crus-galli (L.) P. Beauv. var. formosensis Ohwi, Cyperus difformis (umbrella sedge), and Scirpus juncoides were seeded. Each of the compounds of the present invention was dissolved in acetone, and the obtained product was then diluted with water containing Tween 80®. Each of the resultant chemical solutions was dropped on the entire surface of an associated one of treatment sections, so that each section was treated with 1 ml of the respective chemical solution (a dose of 2 kg/ha). After the treatment, the plants were grown in a glasshouse. On day 21, a survey was conducted on the herbicidal activity by visual observation, and evaluation was made according to the following criteria. 0: Growth inhibition effect is less than 10%. 1: Growth inhibition effect is equal to or greater than 10%, and less than 30%. 2; Growth inhibition effect is equal to or greater than 30%, and less than 50%. 3: Growth inhibition effect equal to or greater than 50%, and less than 70%. 4: Growth inhibition effect is equal to or greater than 70%, and less than 90%. 5: Growth inhibition effect is equal to or greater than 90%, or complete withering is achieved. ECHDG=Echinochloa crus-galli (L.) P. Beauv. var. formosensis Ohwi, MONVA=Monochoria vaginalis, SCIJU=Scirpus juncoides, CYMIC=Cyperus microiria.

[3] = tested on: Scirpus juncoides; assay: Test for Herbicidal Effect in Flooding Treatment (#1), SCIJU; details: for SCIJU #1 herbicidal effect (growth inhibition grade): flooding treatment at seeding, dose 2 kg/ha, visual observation on day 21; for SCIJU #1 herbicidal effect (growth inhibition rating 0-5): flooding treatment #1
Summary of the method: as §1

[4] = tested on: Echinochloa crus-galli (L.) P. Beauv. var. formosensis Ohwi; assay: Test for Herbicidal Effect in Flooding Treatment (#2), ECHDG at 2-2.5 leaf stage; details: for ECHDG (2-2.5L) #2 herbicidal effect (growth inhibition grade): flooding treatment at 2-2.5 leaf stage, dose 0.2 kg/ha, visual observation on day 21; for ECHDG (2-2.5L) #2 herbicidal effect (growth inhibition rating 0-5): flooding treatment #2, 2-2.5 leaf stage
Summary of the method: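 Scoring is a visual 0–5 scale of growth inhibition (0 below 10%, 5 at 90% or more or full withering), taken 21 days after treatment in a glasshouse. Dose was 0.2 kg/ha, applied as acetone/Tween 80 aqueous solution onto flooded soil once seedlings reached the 2–2.5 leaf stage.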

`O=S(=O)(Cc1c(Cl)cccc1OC(F)F)c1ncc(Cl)s1` [Compound 1C-42] was tested, and the “ECHDG #1 herbicidal effect (growth inhibition grade)” value [1] was 5 (Growth inhibition effect is equal to or greater than 90%, or complete withering is achieved), the “MONVA #1 herbicidal effect (growth inhibition grade)” value [2] was 5 (Growth inhibition effect is equal to or greater than 90%, or complete withering is achieved) and the “SCIJU #1 herbicidal effect (growth inhibition grade)” value [3] was 5 (Growth inhibition effect is equal to or greater than 90%, or complete withering is achieved). For the same molecule, the “ECHDG (2-2.5L) #2 herbicidal effect (growth inhibition grade)” value [4] was 5 (Growth inhibition effect is equal to or greater than 90%, or complete withering is achieved).

`COC(=O)C(c1c(F)cccc1OC(F)F)S(=O)(=O)c1ncc(Cl)s1` (racemic) [Compound 1C-145] was tested, and the “ECHDG #1 herbicidal effect (growth inhibition grade)” value [1] was 5 (Growth inhibition effect is equal to or greater than 90%, or complete withering is achieved), the “MONVA #1 herbicidal effect (growth inhibition grade)” value [2] was 5 (Growth inhibition effect is equal to or greater than 90%, or complete withering is achieved) and the “SCIJU #1 herbicidal effect (growth inhibition grade)” value [3] was 5 (Growth inhibition effect is equal to or greater than 90%, or complete withering is achieved). For the same molecule, the “ECHDG (2-2.5L) #2 herbicidal effect (growth inhibition grade)” value [4] was 5 (Growth inhibition effect is equal to or greater than 90%, or complete withering is achieved).

`CCOc1ccc(Cl)c(Cl)c1CS(=O)(=O)c1ncc(Cl)s1` [Compound 1C-33, 5-chloro-2-[(2-ethoxy-5,6-dichlorophenyl)(methanesulfonyl)]-1,3-thiazole] was tested, and the “ECHDG #1 herbicidal effect (growth inhibition grade)” value [1] was 5 (Growth inhibition effect is equal to or greater than 90%, or complete withering is achieved), the “MONVA #1 herbicidal effect (growth inhibition grade)” value [2] was 5 (Growth inhibition effect is equal to or greater than 90%, or complete withering is achieved) and the “SCIJU #1 herbicidal effect (growth inhibition grade)” value [3] was 5 (Growth inhibition effect is equal to or greater than 90%, or complete withering is achieved). For the same molecule, the inhibition at 200 g/ha ([4]; Echinochloa crus-galli, 504 h, flooding treatment (#2), ECHDG at 2-2.5 leaf stage, dose of 0.2 kg/ha, day 21, visual observation, read-out: growth inhibition effect) was ≥ 90% and the “ECHDG (2-2.5L) #2 herbicidal effect (growth inhibition grade)” value [4] was 5 (Growth inhibition effect is equal to or greater than 90%, or complete withering is achieved).

In the case of `CC(c1c(F)cccc1OCC(F)F)S(=O)(=O)c1ncc(Cl)s1` (racemic) [Compound 1C-142], the “ECHDG #1 herbicidal effect (growth inhibition grade)” value [1] was 5 (Growth inhibition effect is equal to or greater than 90%, or complete withering is achieved), the “MONVA #1 herbicidal effect (growth inhibition grade)” value [2] was 5 (Growth inhibition effect is equal to or greater than 90%, or complete withering is achieved) and the “SCIJU #1 herbicidal effect (growth inhibition grade)” value [3] was 5 (Growth inhibition effect is equal to or greater than 90%, or complete withering is achieved). The “ECHDG (2-2.5L) #2 herbicidal effect (growth inhibition grade)” value [4] was 5 (Growth inhibition effect is equal to or greater than 90%, or complete withering is achieved).

In the case of `COc1cccc(C(F)(F)F)c1CS(=O)(=O)c1ncc(Cl)s1` [Compound 1C-7], the “ECHDG #1 herbicidal effect (growth inhibition grade)” value [1] was 5 (Growth inhibition effect is equal to or greater than 90%, or complete withering is achieved), the “MONVA #1 herbicidal effect (growth inhibition grade)” value [2] was 5 (Growth inhibition effect is equal to or greater than 90%, or complete withering is achieved) and the “SCIJU #1 herbicidal effect (growth inhibition grade)” value [3] was 5 (Growth inhibition effect is equal to or greater than 90%, or complete withering is achieved). For the same molecule, the “ECHDG (2-2.5L) #2 herbicidal effect (growth inhibition grade)” value [4] was 5 (Growth inhibition effect is equal to or greater than 90%, or complete withering is achieved).

In the case of `O=S(=O)(Cc1c(F)cc(F)cc1OC(F)F)c1ncc(Br)s1` [Compound 1C-156], the “ECHDG #1 herbicidal effect (growth inhibition grade)” value [1] was 5 (Growth inhibition effect is equal to or greater than 90%, or complete withering is achieved), the “MONVA #1 herbicidal effect (growth inhibition grade)” value [2] was 5 (Growth inhibition effect is equal to or greater than 90%, or complete withering is achieved) and the “SCIJU #1 herbicidal effect (growth inhibition grade)” value [3] was 5 (Growth inhibition effect is equal to or greater than 90%, or complete withering is achieved). The “ECHDG (2-2.5L) #2 herbicidal effect (growth inhibition grade)” value [4] was 5 (Growth inhibition effect is equal to or greater than 90%, or complete withering is achieved).

For `[2H]C([2H])(c1c(Cl)cccc1OC(F)(F)F)S(=O)(=O)c1ncc(Cl)s1` [Compound 1C-133], the “ECHDG #1 herbicidal effect (growth inhibition grade)” value [1] was 5 (Growth inhibition effect is equal to or greater than 90%, or complete withering is achieved), the “MONVA #1 herbicidal effect (growth inhibition grade)” value [2] was 5 (Growth inhibition effect is equal to or greater than 90%, or complete withering is achieved) and the “SCIJU #1 herbicidal effect (growth inhibition grade)” value [3] was 5 (Growth inhibition effect is equal to or greater than 90%, or complete withering is achieved). For the same molecule, the “ECHDG (2-2.5L) #2 herbicidal effect (growth inhibition grade)” value [4] was 5 (Growth inhibition effect is equal to or greater than 90%, or complete withering is achieved).

In the case of `CC(C)(c1c(F)cccc1OCC(F)F)S(=O)(=O)c1ncc(Cl)s1` [Compound 1C-143], the “ECHDG #1 herbicidal effect (growth inhibition grade)” value [1] was 5 (Growth inhibition effect is equal to or greater than 90%, or complete withering is achieved), the “MONVA #1 herbicidal effect (growth inhibition grade)” value [2] was 5 (Growth inhibition effect is equal to or greater than 90%, or complete withering is achieved) and the “SCIJU #1 herbicidal effect (growth inhibition grade)” value [3] was 5 (Growth inhibition effect is equal to or greater than 90%, or complete withering is achieved). The “ECHDG (2-2.5L) #2 herbicidal effect (growth inhibition grade)” value [4] was 4 (Growth inhibition effect is equal to or greater than 70%, and less than 90%).

In the case of `O=S(=O)(Cc1c(F)cccc1OCC(F)(F)C(F)F)c1ncc(Cl)s1` [Compound 1C-60, 5-chloro-2-{[2-(2,2,3,3-tetrafluoropropoxy)-6-fluorophenyl][methanesulfonyl]}-1,3-thiazole], the “ECHDG #1 herbicidal effect (growth inhibition grade)” value [1] was 5 (Growth inhibition effect is equal to or greater than 90%, or complete withering is achieved), the “MONVA #1 herbicidal effect (growth inhibition grade)” value [2] was 5 (Growth inhibition effect is equal to or greater than 90%, or complete withering is achieved) and the “SCIJU #1 herbicidal effect (growth inhibition grade)” value [3] was 5 (Growth inhibition effect is equal to or greater than 90%, or complete withering is achieved). The “ECHDG (2-2.5L) #2 herbicidal effect (growth inhibition grade)” value [4] was 5 (Growth inhibition effect is equal to or greater than 90%, or complete withering is achieved).

With `[O-][S+](Cc1ccccc1OC(F)F)c1ncc(Cl)s1` (centres unmarked) [Compound 1B-2] the “ECHDG #1 herbicidal effect (growth inhibition rating 0-5)” value [1] was 5 (Growth inhibition effect is equal to or greater than 90%, or complete withering is achieved), the “MONVA #1 herbicidal effect (growth inhibition rating 0-5)” value [2] was 5 (Growth inhibition effect is equal to or greater than 90%, or complete withering is achieved) and the “SCIJU #1 herbicidal effect (growth inhibition rating 0-5)” value [3] was 5 (Growth inhibition effect is equal to or greater than 90%, or complete withering is achieved). For the same molecule, the “ECHDG (2-2.5L) #2 herbicidal effect (growth inhibition rating 0-5)” value [4] was 5 (Growth inhibition effect is equal to or greater than 90%, or complete withering is achieved).

For `O=S(=O)(Cc1c(Cl)cccc1OC(F)(F)F)c1ncc(Cl)s1` [Compound 1C-49], the “ECHDG #1 herbicidal effect (growth inhibition grade)” value [1] was 5 (Growth inhibition effect is equal to or greater than 90%, or complete withering is achieved), the “MONVA #1 herbicidal effect (growth inhibition grade)” value [2] was 5 (Growth inhibition effect is equal to or greater than 90%, or complete withering is achieved) and the “SCIJU #1 herbicidal effect (growth inhibition grade)” value [3] was 5 (Growth inhibition effect is equal to or greater than 90%, or complete withering is achieved). For the same molecule, the “ECHDG (2-2.5L) #2 herbicidal effect (growth inhibition grade)” value [4] was 5 (Growth inhibition effect is equal to or greater than 90%, or complete withering is achieved).

In the case of `CCOc1ccc(Cl)c(F)c1CS(=O)(=O)c1ncc(Cl)s1` [Compound 1C-32], the “ECHDG #1 herbicidal effect (growth inhibition grade)” value [1] was 5 (Growth inhibition effect is equal to or greater than 90%, or complete withering is achieved), the “MONVA #1 herbicidal effect (growth inhibition grade)” value [2] was 5 (Growth inhibition effect is equal to or greater than 90%, or complete withering is achieved) and the “SCIJU #1 herbicidal effect (growth inhibition grade)” value [3] was 5 (Growth inhibition effect is equal to or greater than 90%, or complete withering is achieved). The “ECHDG (2-2.5L) #2 herbicidal effect (growth inhibition grade)” value [4] was 5 (Growth inhibition effect is equal to or greater than 90%, or complete withering is achieved).

In the case of `[O-][S+](Cc1c(Cl)cccc1OCC(F)(F)F)c1ncc(Cl)s1` (centres unmarked) [Compound 1B-10], the “ECHDG #1 herbicidal effect (growth inhibition rating 0-5)” value [1] was 5 (Growth inhibition effect is equal to or greater than 90%, or complete withering is achieved), the “MONVA #1 herbicidal effect (growth inhibition rating 0-5)” value [2] was 5 (Growth inhibition effect is equal to or greater than 90%, or complete withering is achieved) and the “SCIJU #1 herbicidal effect (growth inhibition rating 0-5)” value [3] was 5 (Growth inhibition effect is equal to or greater than 90%, or complete withering is achieved). The “ECHDG (2-2.5L) #2 herbicidal effect (growth inhibition rating 0-5)” value [4] was 5 (Growth inhibition effect is equal to or greater than 90%, or complete withering is achieved).
